Read-outs that look alike come from different tables or passages of the source.
Molecular target: T1, HDAC6 (Homo sapiens, UniProt Q9UBN7)
T1 sequence (Q9UBN7 1-1215): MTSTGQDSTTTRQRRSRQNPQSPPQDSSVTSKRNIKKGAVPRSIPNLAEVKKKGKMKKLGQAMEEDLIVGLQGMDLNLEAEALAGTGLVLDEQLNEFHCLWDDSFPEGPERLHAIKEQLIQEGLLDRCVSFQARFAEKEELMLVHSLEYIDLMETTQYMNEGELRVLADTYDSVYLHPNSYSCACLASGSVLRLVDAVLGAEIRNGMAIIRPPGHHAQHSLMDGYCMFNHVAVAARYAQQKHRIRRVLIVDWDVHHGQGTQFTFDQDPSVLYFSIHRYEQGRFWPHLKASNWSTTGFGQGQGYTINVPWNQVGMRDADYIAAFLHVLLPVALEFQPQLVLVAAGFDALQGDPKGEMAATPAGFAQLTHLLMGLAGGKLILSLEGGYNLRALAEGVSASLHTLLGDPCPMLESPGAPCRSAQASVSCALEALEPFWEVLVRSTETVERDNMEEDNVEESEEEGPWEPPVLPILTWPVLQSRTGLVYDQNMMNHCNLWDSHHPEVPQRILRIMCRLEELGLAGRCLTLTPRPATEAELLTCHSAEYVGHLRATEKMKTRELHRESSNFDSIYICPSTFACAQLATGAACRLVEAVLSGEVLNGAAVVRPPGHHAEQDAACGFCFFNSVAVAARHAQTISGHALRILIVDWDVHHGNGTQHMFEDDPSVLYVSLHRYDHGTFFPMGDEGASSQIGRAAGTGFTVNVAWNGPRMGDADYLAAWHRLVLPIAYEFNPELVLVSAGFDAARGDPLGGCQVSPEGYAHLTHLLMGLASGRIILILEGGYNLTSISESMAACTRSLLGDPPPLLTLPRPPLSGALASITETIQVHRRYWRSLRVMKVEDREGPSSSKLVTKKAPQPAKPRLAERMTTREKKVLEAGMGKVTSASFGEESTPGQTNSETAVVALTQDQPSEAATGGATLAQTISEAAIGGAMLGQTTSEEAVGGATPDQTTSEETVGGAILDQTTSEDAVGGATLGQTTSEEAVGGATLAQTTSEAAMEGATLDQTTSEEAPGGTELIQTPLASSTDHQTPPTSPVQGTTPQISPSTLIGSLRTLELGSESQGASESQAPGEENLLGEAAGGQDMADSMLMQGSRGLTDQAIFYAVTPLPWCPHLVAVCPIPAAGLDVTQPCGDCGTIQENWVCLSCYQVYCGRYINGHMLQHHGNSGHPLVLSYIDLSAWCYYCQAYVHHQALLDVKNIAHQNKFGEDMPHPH
Assay: Chemoproteomic competition pulldown assay
Type: binding
Design: endogenous in cells; host or cells: SW620, MV4-11, A549 lysates
Experimental: To identify proteins directly bound by lipoic acid, we employed a chemoproteomic competition assay. Briefly, (R/S)-LA was immobilized on sepharose beads via an amidation reaction to form an affinity matrix (abbreviated as iL; Fig. 1a). This affinity matrix can be incubated with cell lysate to pull down potential LA or LM target proteins and identify these targets via bottom-up proteomics. In a competition assay, free LA or LM were incubated with lysate at different concentrations before pulling down and quantifying target proteins. […] (Fig. 1b, see “Methods” for details). […] The lysate buffer used in this assay contains 1 mM DTT to mimic the intracellular reductive milieu and to reduce lipoic acid and LM. […] Additional competition assays performed in lung adenocarcinoma cell A549 lysate also identified HDAC1, HDAC2, and HDAC6 as targets (Supplementary Fig. 1b). Amongst the three cell lines tested, HDACs were the only confidently identified targets across the 1500–3000 proteins quantified in these assays. […] We validated the results by analogous pulldown competition assays using two other affinity matrices prepared via the immobilization of either the HDAC inhibitor Quisinostat (iQ) and an analog of the class IIa HDAC inhibitor Bürli’s 31[14] (iC)[12]. We have previously shown that these affinity matrices specifically bind to the active sites of HDACs and have used them for HDACi selectivity profiling. Indeed, binding of (R/S)-LA and (R/S)-LM to HDAC1, HDAC2, HDAC3, HDAC6, and, to a lesser extent, HDAC8 was confirmed in these assays (Supplementary Fig. 1c, d). No binding to class IIa HDACs or the recently discovered common HDAC inhibitor off-target MBLAC2 was observed (Supplementary Fig. 1e)[12]. […] This observation might reflect electrostatic repulsion between the HDAC10 active site gate-keeper glutamic acid residues[15],[16] and the terminal carboxylic acid of LA.
To assess the degree of protein depletion from lysates by the affinity matrix, a second pulldown (PDPD) with fresh beads was performed using the unbound protein fraction from the vehicle control flow through. The beads were washed (1 × 1 mL of lysis buffer without inhibitors and only 0.4% Igepal, 2 × 2 mL of lysis buffer without inhibitors and only 0.2% Igepal), and captured proteins were denatured with 8 M urea buffer, alkylated with 55 mM chloroacetamide and digested with Trypsin according to standard procedures. The resulting peptides were desalted on a C18 filter plate (Sep-Pak® tC18 µElution Plate, Waters), vacuum dried, and stored at −20 °C until LC–MSMS measurement.
For the competition assays, relative binding was calculated based on the protein intensity ratio to the DMSO control for every single inhibitor concentration. EC50 values were derived from a four-parameter log-logistic regression with variable slope (constrain: bottom > 0). The obtained EC50 values were multiplied with a protein-dependent correction factor (cf), resulting in the apparent Kd value (Kd^app). The correction factor is determined by calculating the ratio of the protein intensity of two consecutive pulldowns of the vehicle control sample[13]. Targets of the inhibitors were annotated manually according to published procedures[12],[46],[47]. […] Additionally, the number of unique peptides and MSMS counts per condition were taken into account. Positive target binding across several independent experiments performed with different cell lysates further substantiated our confidence for a true positive drug-target binding event.

[1] = iL, SW620, read-out: pKdapp (converted)
[2] = iQ, SW620, read-out: pKdapp (converted)
[3] = iQ, SW620 lysate, log10 M -3.52288
[4] = iQ, SW620 lysate, log10 M -4.52288
[5] = iQ, SW620 lysate, log10 M -5.52288
[6] = iQ, SW620 lysate, log10 M -6.52288

O=C(O)CCCCC1CCSS1 (racemic) [(R/S)-LA, (R/S)-lipoic acid]
Kd (iL, A549, read-out: pKdapp (converted)): 5.01 µM
relative binding vs DMSO (iL, A549 lysate, log10 M -4): 0.05504
relative binding vs DMSO (iL, A549 lysate, log10 M -4.52288): 0.1518
relative binding vs DMSO (iL, A549 lysate, log10 M -5): 0.3845
relative binding vs DMSO (iL, A549 lysate, log10 M -5.52288): 0.7285
relative binding vs DMSO (iL, A549 lysate, log10 M -6): 0.9189
relative binding vs DMSO (iL, A549 lysate, log10 M -6.52288): 1.088
relative binding vs DMSO (iL, A549 lysate, log10 M -7.52288): 1.108
relative binding vs DMSO (iL, A549 lysate, log10 M -8): 1.195
relative binding vs DMSO (iL, A549 lysate, log10 M -8.52288): 0.9886
Kd [1]: 10 µM
relative binding vs DMSO (iL, SW620 lysate, log10 M -3.52288): 0.1052
relative binding vs DMSO (iL, SW620 lysate, log10 M -4): 0.1618
relative binding vs DMSO (iL, SW620 lysate, log10 M -4.52288): 0.8697
relative binding vs DMSO (iL, SW620 lysate, log10 M -5): 1.623
relative binding vs DMSO (iL, SW620 lysate, log10 M -5.52288): 0.9452
relative binding vs DMSO (iL, SW620 lysate, log10 M -6): 1.514
relative binding vs DMSO (iL, SW620 lysate, log10 M -6.52288): 0.6952
relative binding vs DMSO (iL, SW620 lysate, log10 M -7): 1.008
Kd [2]: 10 µM
relative binding vs DMSO [3]: 0.2137
relative binding vs DMSO (iQ, SW620 lysate, log10 M -4): 0.2383
relative binding vs DMSO [4]: 0.4233
relative binding vs DMSO (iQ, SW620 lysate, log10 M -5): 0.664
relative binding vs DMSO [5]: 0.8619
relative binding vs DMSO (iQ, SW620 lysate, log10 M -6): 0.8804
relative binding vs DMSO [6]: 1.0379
relative binding vs DMSO (iQ, SW620 lysate, log10 M -7): 0.9144

NC(=O)CCCCC1CCSS1 (racemic) [(R/S)-LM, (R/S)-lipoamide]
relative binding vs DMSO (iL, MV4-11 lysate, log10 M -3.52288): 0.06003
relative binding vs DMSO (iL, MV4-11 lysate, log10 M -4): 0.1375
relative binding vs DMSO (iL, MV4-11 lysate, log10 M -4.52288): 0.3195
relative binding vs DMSO (iL, MV4-11 lysate, log10 M -5): 0.763
relative binding vs DMSO (iL, MV4-11 lysate, log10 M -5.52288): 0.7012
relative binding vs DMSO (iL, MV4-11 lysate, log10 M -6): 0.776
relative binding vs DMSO (iL, MV4-11 lysate, log10 M -6.52288): 0.9127
relative binding vs DMSO (iL, MV4-11 lysate, log10 M -7): 0.9147
Kd (iL, MV4-11 lysate, read-out: Kd app): 21 µM
Kd (iL, MV411, read-out: pKdapp (converted)): 10 µM
Kd [1]: 15.8 µM
Kd [2]: 10 µM
relative binding vs DMSO [3]: 0.1855
relative binding vs DMSO (iQ, SW620 lysate, log10 M -4): 0.2172
relative binding vs DMSO [4]: 0.4129
relative binding vs DMSO (iQ, SW620 lysate, log10 M -5): 0.6644
relative binding vs DMSO [5]: 0.9409
relative binding vs DMSO (iQ, SW620 lysate, log10 M -6): 1.062
relative binding vs DMSO [6]: 0.8866
relative binding vs DMSO (iQ, SW620 lysate, log10 M -7): 0.9139
